A short description of data set [1]: MTT cytotoxicity assay. The format is cell-based. Particulars: human, L-02 normal liver cells, L-02 cells. As to the method:
The human liver L-02 cells were obtained from the biology laboratory in Key Laboratory of Chemistry for Natural Products of Guizhou Province and Chinese Academy of Sciences (Guiyang, China). The cells were grown in Dulbecco’s Modified Eagle’s Medium (supplemented with 10% (v/v) FBS, 100 U/mL penicillin, and 100 μg/mL streptomycin) at 37 °C in a CO2 incubator (5% CO2 and 95% air, 95% humidity). The effect of some compounds on cell viability was determined with the MTT assay according to the previously published literature. A total of 5000 cells were inoculated in a 96-well plate and three wells of each concentration of test compound were used. A total of 24 h after inoculation, the cells had grown to ~60% confluency, and different concentrations of compounds were added, and then the cells were cultured for 48 h. DMSO was used as the control. A total of 20 μL of MTT solution was added to each well and incubated at 37 °C for 4 h. Formazan crystals were dissolved in 150 μL of DMSO and quantified using a microplate reader (Thermo Scientific, Vario Skan Flash, Shanghai Bio-Gene Technology Co., LTD, Shanghai, China) at 490 nm. The cytotoxicity was calculated according to following formula:Cytotoxicity (%) = [(OCK − OT)/OCK] × 100%(2) where OCK represents the optical density (OD) value of the blank control group, and OT represents the OD value of experimental group.

For data set [2], the system named is B. xylophilus. As to the kind of experiment: microbe, parasite or virus in culture. The note with it: Bursaphelenchus xylophilus, 48 h, read-out: Corrected Mortality Rate ± SD (%) B. xylophilus. The source says: (§1) M. incognita (parasitic on tomato plants), A. besseyi (potato dextrose agar–Botrytis cinerea breeding), B. xylophilus (potato dextrose agar–Botrytis cinerea breeding), and C. elegans (nematode growth medium–inactivated Escherichia coli OP50 cultivation) were provided by the Fine Chemical Research and Development Center of Guizhou University (Guizhou, China). The methodology used for the nematocidal bioassays of these target compounds was modified in the light of the conventional methods reported in the previously published literature. The nematicidal activity of the target compounds against four nematodes was determined using 48-well biochemical culture dishes. All of the compounds were dissolved with 100 μL DMF and were diluted with 1% Tween-80 to obtain 200 and 50 μg/mL concentrations for the bioassays. Fosthiazate and tioxazafen were used as positive controls at the same concentrations, and a negative control group was prepared without compounds using the same methodology. An amount of 10 µL of nematode suspension (about 50 nematodes) and 300 µL of the trial solution were added to corresponding hole, and each treatment was set to three repetitions. All of the 48-well plates were placed in a biochemical incubator at 27 °C for dark light culture. […] Corrected mortality (%) = [(mortality of treatment % − mortality of negative control %)/(1 − mortality of negative control %)] × 100%(3)

The test system of data set [3] is A. besseyi. As to the kind of experiment: microbe, parasite or virus in culture. The note with it: Aphelenchoides besseyi, 48 h, read-out: Corrected Mortality Rate ± SD (%) A. besseyi.
Excerpt: as §1

In data set [4] the test system is M. incognita. As to the kind of experiment: microbe, parasite or virus in culture. The note with it: Meloidogyne incognita, 48 h, read-out: Corrected Mortality Rate ± SD (%) M. incognita.
Excerpt: as §1

The test system of data set [5] is C. elegans. As to the kind of experiment: microbe, parasite or virus in culture. Particulars: 48 h; for mortality at 50 µg/mL / mortality at 200 µg/mL: Caenorhabditis elegans, read-out: Corrected Mortality Rate ± SD (%) C. elegans.
Excerpt: as §1

The test system of data set [6] is S. sclerotiorum. As to the kind of experiment: In vitro mycelium growth inhibition test. It counts as cell-based. Particulars: Sclerotinia sclerotiorum, mycelial growth, mean ± SD of three replicates; for inhibition at 50 µg/mL: 50 μg/mL, read-out: Inhibition Rate (%) S. sclerotiorum; for EC50: read-out: EC50 against S. sclerotiorum. As to the method: (§2) B. cinerea and S. scleotiorum were kindly provided by the Department of Pesticides, College of Plant Protection, Nanjing Agricultural University (Nanjing, China). All compounds were evaluated for mycelium growth inhibition tests against the two plant pathogenic fungi mentioned in previous reports. These two fungi were inoculated on potato dextrose agar (PDA) plates and were grown in biochemical incubators at 25 ± 1 °C for 2–4 days. The new mycelium was used to determine the antifungal activity. The target compounds were dissolved in 100 µL DMF, and they were then added into the PDA media to make the concentration 50 µg/mL. Mycelia dishes of about 5 mm in diameter were cut from the culture medium. Mycelium were picked up with a sterile inoculation needle, and the sample was inoculated in the middle of a PDA plate in a sterile environment. Afterwards, a preliminary screening of fungal activity was performed. […] Each test was carried out three times. The radial growth of the fungal colonies was gauged and recorded when the diameters of the blank control mycelia reached 5.0–5.5 cm. […] The final data were analyzed using SPSS v.25.0 (IBM, New York, NY, USA). The following formula was used to calculate the fungi inhibition rate. Inhibition rate (%) = [(Mycelium diameter of negative control − Mycelium diameter of treatment)/(Mycelium diameter of negative control − 0.5)] × 100%(1)

The subject of data set [7] is B. cinerea. As to the kind of experiment: In vitro mycelium growth inhibition test. The format is cell-based. Particulars: Botrytis cinerea; 50 μg/mL; mycelial growth; mean ± SD of three replicates; read-out: Inhibition Rate (%) B. cinerea. The protocol:
as §2

The values that follow come from PMC8836147, “Design, Synthesis and Antifungal/Nematicidal Activity of Novel 1,2,4-Oxadiazole Derivatives Containing Amide Fragments” (International Journal of Molecular Sciences, 2022).

≈ marks a conversion by molar mass, not a printed value.

What is called mortality is the percentage killed. The term inhibition denotes the change of the read-out against control, counted positive when it falls. By EC50 is commonly meant the concentration needed to bring the measured effect to its halfway point. As to `O=C(NCc1ccc(F)cc1F)c1nc(-c2ccccc2)no1` [Compound F3, N -(2,4-difluorobenzyl)-3-phenyl-1,2,4-oxadiazole-5-carboxamide], the cytotoxicity at 48 h, 50 μg/mL in data set [1] was 7.5 ± 3.8%. The molecule also yielded a cytotoxicity at 48 h, 100 μg/mL in data set [1] of 17 ± 1.4%. Further, the cytotoxicity at 48 h, 200 μg/mL in data set [1] is 50.8 ± 3.9%. The mortality at 50 µg/mL in data set [2] was 0%; in data set [3], 0%; in data set [4], 13.9 ± 2.1%; in data set [5] it was 100%. The mortality at 200 µg/mL is 26.1 ± 1.2% in data set [2], 20.1 ± 1.3% in data set [3], 54.9 ± 3.3% in data set [4] and 100% in data set [5]. Besides, the “Corrected Mortality Rate ± SD (%) C. elegans” value in data set [5] (50 µg/mL) and in data set [5] (200 µg/mL) was 100.0% each time. In addition, the inhibition at 50 µg/mL in data set [6] came to 84.8 ± 0.6%; in data set [7], 56.8 ± 0.1%. Further, in data set [6], the half-maximal effective concentration (EC50) turned out to be 5.4 ± 0.3 µg/mL (≈ 17.1 µM).
`O=C(NCCc1ncc(C(F)(F)F)cc1Cl)c1nc(-c2cccs2)no1` [Compound F14] yielded a cytotoxicity at 48 h, 50 μg/mL in data set [1] of 18.8 ± 2.5%. In data set [1], this molecule returned a cytotoxicity at 48 h, 100 μg/mL of 21.4 ± 5%. The molecule further had a cytotoxicity at 48 h, 200 μg/mL in data set [1] of 39.1 ± 8.4%. Further, the mortality at 50 µg/mL worked out at 0% in data set [2], 0% in data set [3], 0% in data set [4] and 70 ± 0.6% in data set [5]. In addition, the mortality at 200 µg/mL in data set [2] was 6.9 ± 1.8%; in data set [3], 27 ± 0.8%; in data set [4], 12.3 ± 2.3%; in data set [5], 100%. Moreover, the inhibition at 50 µg/mL came out at 65.2 ± 0.2% in data set [6] and 36.4 ± 0.2% in data set [7]. The concentration for a half-maximal effect (EC50) in data set [6] was 15.3 ± 1.3 µg/mL (≈ 38 µM).
In data set [1], `Cc1nc(C(F)(F)F)c(C(=O)Nc2c(Br)cc(OC(F)(F)F)cc2Br)s1` [Thifluzamide, thifluzamide, reference compound] yielded a cytotoxicity at 48 h, 50 μg/mL of 33.3 ± 1.8%; a cytotoxicity at 48 h, 100 μg/mL of 33.7 ± 0.4%; a cytotoxicity at 48 h, 200 μg/mL of 33.9 ± 1.5%. Besides, in data set [6], the inhibition at 50 µg/mL was 86.7 ± 0.3% and the EC50 came out at 4.3 ± 1.7 µg/mL (≈ 8.14 µM). The inhibition at 50 µg/mL in data set [7] amounted to 80.3 ± 0.2%.
On to `O=C(Nc1ccc(Cl)cc1Cl)c1nc(-c2ncc(C(F)(F)F)cc2Cl)no1` [Compound F24], for which the mortality at 50 µg/mL in data set [2] is 0%; in data set [3] it was 0%; in data set [4] it was 0%; in data set [5], 9.6 ± 1.1%. For the same molecule, the mortality at 200 µg/mL came out at 21.2 ± 1.5% in data set [2], 23.4 ± 1.6% in data set [3], 18.5 ± 1.1% in data set [4] and 24.6 ± 1.4% in data set [5]. The inhibition at 50 µg/mL in data set [6] is 1.8 ± 0.8%; in data set [7], 38.5 ± 0.5%.
Consider `Cc1ccc(-c2noc(C(=O)NCCc3ncc(C(F)(F)F)cc3Cl)n2)cc1` [Compound F6, N-(2-(3-chloro-5-(trifluoromethyl)pyridin-2-yl)ethyl)-3-(p-tolyl)-1,2,4-oxadiazole-5-carboxamide], for which the mortality at 50 µg/mL worked out at 0% in data set [2], 0% in data set [3], 7.9 ± 2.2% in data set [4] and 100% in data set [5]. Further, the mortality at 200 µg/mL worked out at 11.6 ± 2.1% in data set [2], 29.4 ± 2.3% in data set [3], 44.6 ± 3.8% in data set [4] and 100% in data set [5]. Besides, the “Corrected Mortality Rate ± SD (%) C. elegans” value in data set [5] (50 µg/mL) and in data set [5] (200 µg/mL) was 100.0% throughout. The inhibition at 50 µg/mL in data set [6] stood at 56 ± 1.4%; in data set [7], 22.9 ± 1.1%.
Take `Cc1ccc(-c2noc(C(=O)NCCc3ccccn3)n2)cc1` [Compound F5, N -(2-(pyridin-2-yl)ethyl)-3-(p-tolyl)-1,2,4-oxadiazole-5-carboxamide]: the mortality at 50 µg/mL in data set [2] was 0%; in data set [3] it was 0%; in data set [4], 3.5 ± 1.3%; in data set [5] it was 67.9 ± 2.3%. Besides, the mortality at 200 µg/mL amounted to 8.1 ± 2.2% in data set [2], 22.5 ± 3.2% in data set [3], 35 ± 2.2% in data set [4] and 94.6 ± 1.7% in data set [5]. Moreover, the inhibition at 50 µg/mL in data set [6] was determined as 56.3 ± 1.2%; in data set [7], 24.9 ± 1.6%.
As to `O=C(NCCc1ncc(C(F)(F)F)cc1Cl)c1nc(-c2ccc(Cl)cc2)no1` [Compound F10, N-(2-(3-chloro-5-(trifluoromethyl)pyridin-2-yl)ethyl)-3-(4-chlorophenyl)-1,2,4-oxadiazole-5-carboxamide], the mortality at 50 µg/mL in data set [2] was determined as 0%; in data set [3], 0%; in data set [4], 0%; in data set [5] it was 69.3 ± 1.8%. Moreover, the mortality at 200 µg/mL came out at 12.1 ± 1.7% in data set [2], 23.6 ± 2.2% in data set [3], 15.8 ± 3.5% in data set [4] and 100% in data set [5]. Also, the inhibition at 50 µg/mL was found to be 48.6 ± 1.2% in data set [6] and 24.2 ± 1.7% in data set [7].
Consider `Cc1ccc(-c2noc(C(=O)Nc3ccc(Cl)cc3Cl)n2)cc1` [Compound F8, N-(2,4-dichlorophenyl)-3-(p-tolyl)-1,2,4-oxadiazole-5-carboxamide], for which the mortality at 50 µg/mL in data set [2] is 0%; in data set [3], 0%; in data set [4], 4.9 ± 2.1%; in data set [5] it was 47.6 ± 1.7%. Also, the mortality at 200 µg/mL in data set [2] amounted to 18.1 ± 1.2%; in data set [3] it was 6.1 ± 1.2%; in data set [4], 23.9 ± 3.3%; in data set [5], 77.6 ± 1.2%. Further, the results for the inhibition at 50 µg/mL in data set [6] and in data set [7] were 21.1 ± 1.7% and 22.7 ± 1.3%, respectively.
Take `O=C(Nc1ccc(Cl)cc1Cl)c1nc(-c2ccccc2)no1` [Compound F4, N-(2,4-dichlorophenyl)-3-phenyl-1,2,4-oxadiazole-5-carboxamide]: the mortality at 50 µg/mL in data set [2] came to 0%; in data set [3], 0%; in data set [4], 5.9 ± 1.3%; in data set [5], 71.4 ± 2.2%. Further, the mortality at 200 µg/mL amounted to 25.3 ± 1.7% in data set [2], 11.7 ± 1.4% in data set [3], 23.2 ± 1.4% in data set [4] and 98.4 ± 2.3% in data set [5]. Further, the results for the inhibition at 50 µg/mL in data set [6] and in data set [7] were 31.2 ± 0.7% and 20.9 ± 0.1%, respectively.
